Tests used:
Histamine H3 receptor = Histamine H3 receptor (Cavia porcellus, UniProt Q9JI35); assay: Antagonist activity at histamine H3 receptor in guinea pig jejunum assessed as electrically evoked contractions; type: functional, tissue-based; conditions: read-out: pA2 (converted)
Histamine H1 receptor = Histamine H1 receptor (Cavia porcellus, UniProt P31389); assay: Antagonist activity at histamine H1 receptor in guinea pig ileum assessed as histamine-induced contractions; type: functional, tissue-based; conditions: read-out: pA2 (converted)
Sequence of Histamine H1 receptor (P31389 whole entry): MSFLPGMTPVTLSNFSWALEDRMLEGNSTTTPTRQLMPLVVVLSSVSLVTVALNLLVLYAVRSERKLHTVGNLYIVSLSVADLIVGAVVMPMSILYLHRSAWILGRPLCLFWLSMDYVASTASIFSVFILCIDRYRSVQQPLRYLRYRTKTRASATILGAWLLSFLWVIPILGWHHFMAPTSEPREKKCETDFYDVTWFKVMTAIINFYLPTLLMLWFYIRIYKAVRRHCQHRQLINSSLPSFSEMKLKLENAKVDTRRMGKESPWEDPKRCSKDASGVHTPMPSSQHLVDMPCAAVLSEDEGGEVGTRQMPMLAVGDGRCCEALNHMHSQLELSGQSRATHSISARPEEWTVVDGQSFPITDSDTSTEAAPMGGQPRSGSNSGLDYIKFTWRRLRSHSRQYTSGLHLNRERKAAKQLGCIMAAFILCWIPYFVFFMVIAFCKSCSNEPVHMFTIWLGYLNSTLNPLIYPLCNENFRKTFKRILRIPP

Sequence of Histamine H3 receptor (Q9JI35 whole entry): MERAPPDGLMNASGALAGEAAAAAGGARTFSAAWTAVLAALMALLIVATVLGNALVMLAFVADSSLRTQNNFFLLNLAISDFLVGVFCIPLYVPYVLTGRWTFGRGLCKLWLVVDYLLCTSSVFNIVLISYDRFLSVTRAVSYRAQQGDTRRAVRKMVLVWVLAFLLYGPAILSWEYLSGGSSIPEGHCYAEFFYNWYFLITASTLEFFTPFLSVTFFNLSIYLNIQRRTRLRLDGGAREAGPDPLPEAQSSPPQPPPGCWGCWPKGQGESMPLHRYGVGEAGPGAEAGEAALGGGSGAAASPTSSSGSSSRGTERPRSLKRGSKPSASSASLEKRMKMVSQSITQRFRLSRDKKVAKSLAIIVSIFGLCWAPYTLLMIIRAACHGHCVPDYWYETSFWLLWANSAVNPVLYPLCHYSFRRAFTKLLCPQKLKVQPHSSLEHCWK

Structure (SMILES) | Kb (Histamine H3 receptor) [µM] | Kb (Histamine H1 receptor) [µM]
CCCN1CCN(c2nc3cnccc3[nH]2)CC1 | 0.0562 | –
CCCN1CCN(c2ncc(CCN(C)Cc3ccccc3)s2)CC1 | 0.0174 | > 100
C=CCN1CCN(c2nc3ccccc3s2)CC1 | 0.0794 | –
CCCN1CCN(c2ncc(CCNC)s2)CC1 | 0.0631 | –
CCCN1CCN(c2ncc(CCNC=O)s2)CC1 | 0.117 | –
S=C(NC1CCCCC1)N1CCC(c2cnc[nH]2)CC1 [THIOPERAMIDE] | 0.000871 | –
CCCN1CCN(c2nc3cnccc3o2)CC1 | 0.126 | –
CCCN1CCN(c2nc3ccccc3s2)CC1 | 0.0692 | –
CCCN1CCN(c2ncc(CCN)s2)CC1 | 0.0646 | –

The next lines start with the values.

Kb (Histamine H3 receptor) [µM] | Kb (Histamine H1 receptor) [µM] | Structure (SMILES)
0.0295 | > 100 | CCCN(C)CCc1cnc(N2CCN(CCC)CC2)s1
0.00537 | > 100 | CCCN1CCN(c2ncc(CCN(C)CCCc3ccccc3)s2)CC1
0.0891 | – | CCCCCN(C)CCc1cnc(N2CCN(CCC)CC2)s1
0.0955 | – | CCCCC(=O)N(C)CCc1cnc(N2CCN(CCC)CC2)s1
0.0562 | – | CCCN1CCN(c2ncc(CCN(C)CCCCCc3ccccc3)s2)CC1
0.0437 | – | CCCN1CCN(c2ncc(CCN(C)C(=O)CC)s2)CC1
0.055 | – | CCCN1CCN(c2ncc(CCN(C)C=O)s2)CC1
0.0166 | > 100 | CCCN1CCN(c2ncc(CCN(C)C)s2)CC1

— ChEMBL document CHEMBL1137723, “Non-imidazole histamine H3 ligands, part IV: SAR of 1-[2-thiazol-5-yl-(2-aminoethyl)]-4-n-propylpiperazine derivatives” (Eur J Med Chem, 2009)
